Experimental data published in US20140295547A1, “METHOD TO CONSTRUCT IN-VITRO HUMAN BLOOD BRAIN BARRIER MODEL” (National Chung Cheng University, priority 2013, published 2014).

Tested on: in-vitro human BBB model (HBMECs co-cultured with HBVPs and HAs)
Test: Permeability of propidium iodide across the in-vitro human BBB model
Format: in vitro ADME
Description: The present invention uses HBMECs and different ratios of HBVPs and HAs to construct a BBB model and measures TEER and permeability of propidium iodide (PI) to evaluate the integrity and performance of the BBB model. The present invention also uses a fluorescent dye Calcein to detect the activity of P-gp. The present invention also detects the concentrations of the transforming growth factor-β1 (TGF-β1), the matrix. metalloproteinases (MMP-9), and the vascular endothelial growth factor (VEGF), which influence the integrity of the BBB model.
Refer to FIG. 1 and FIG. 2. […] In Step S10, defrost a plurality of small tubes of frozen cell-containing liquids via placing them in water having a temperature of 37° C. for 1 minute until all the frozen cell-containing liquids completely liquefy and become the suspension liquids of HBVPs, HAs and HBMECs. In Step S12, respectively suck the suspension liquids of HBVPs, HAs and HBMECs from the small tubes, respectively place the suspension liquids in pretreated culture plates, and culture the suspension liquids in a carbon-dioxide incubator having a temperature of 37° C. and a relative humidity of 95%. In Step S14, provide a pretreated culture dish 10 having a filter membrane 12 made of PET (polyethylene terephthalate); flip over the filter membrane 12; attach the suspension liquids of HBVPs and HAs by a ratio of 1:1, 1:2, or 1:6 to the bottom surface of the filter membrane 12 of the culture dish 10 to plant HBVPs 14 and HAs 16 on the bottom surface, wherein the time for attaching is 1 hour and the total planting density of HBVPs 14 and HAs 16 is 4×10^5 cells/cm^2. In Step S16, fill the suspension liquid of HBMECs into the top surface of the filter membrane 12 to plant HBMECs 18 on the top surface, wherein the planting density of HBMECs 18 is 4×10^5 cell/cm^2. […]

CC[N+](C)(CC)CCC[n+]1c(-c2ccccc2)c2cc(N)ccc2c2ccc(N)cc21.[I-].[I-] [propidium iodide]
PI permeability in comparison with the BBB model with HBVPs:HAs=1:2 (BBB model with HBVPs:HAs=1:1): higher
PI permeability in comparison with the BBB model with HBVPs:HAs=1:2 (BBB model with HBVPs:HAs=1:6): higher
permeability of propidium iodide relative to that of a single layer of the cultured HBMECs (HBMECs co-cultured with HBVPs:HAs=1:2, condition medium PCM:ACM 1:1 for 7 days): 39%
